The record followed here is US20200138827A1, “SMALL MOLECULE MODULATORS OF HUMAN STING” (Curadev Pharma Limited, priority 2017, published 2020).

pEC50: −log10 of the molar value. Read-outs that look alike come from different tables or passages of the source.

The target of assay [1] is T1, WT/R232 STING protein (Homo sapiens, UniProt Q86WV6, H232R).
T1 construct: host or cells: HEK293T
The assay can be described thus: Luciferase reporter assay in HEK293T-hSTING-Luciferase cells, WT/R232. It counts as cell-based. The note with it: 20 hr stimulation, read-out: R232 Activity (EC50 range). Put shortly:
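[…], read by luminescence from supernatant after 20 h compound stimulation. Cells: clonally selected HEK293T (5×10^5/well) stably carrying WT/R232 human STING and a luciferase reporter under five tandem ISREs fused to an ISG54 minimal promoter.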

The target of assay [2] is T2, hSTING(H232) (Homo sapiens, UniProt Q86WV6).
T2 construct: host or cells: HEK293T
The assay can be described thus: Luciferase reporter assay in HEK293T-hSTING-Luciferase cells, H232 polymorph. The assay is classed as cell-based. As to conditions: 20 hr stimulation, read-out: H232 activity (EC50 range). In short, it runs like this:
(§1)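 HEK293T clones stably expressed the given human STING variant plus luciferase under an ISRE/ISG54 IRF-inducible promoter. 5×10^5 cells were stimulated with compound for 20 hr, and secreted luciferase in the supernatant was measured by Quanti-Luc luminescence.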

Assay [3] addresses T3, hSTING(HAQ) (Homo sapiens, UniProt Q86WV6, G230A/H232R/R293Q/R71H).
T3 construct: host or cells: HEK293T
The assay can be described thus: Luciferase reporter assay in HEK293T-hSTING-Luciferase cells, HAQ polymorph. As to conditions: 20 hr stimulation, read-out: HAQ activity (EC50 range). The assay is classed as cell-based. In short, it runs like this:
as §1
Background: Reporter assays use an easily measured gene product as a stand-in for the process of interest.

Assay [4] has as its system IRF pathway. The assay can be described thus: Reporter gene expression assay in THP1-Dual cells, IRF axis (secreted Lucia luciferase). It counts as cell-based, human. The note with it: read-out: THP-IRF activity (EC50 range). In short, it runs like this: (§2)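 THP-1-derived cells carrying inducible NF-κB-SEAP and IRF-Lucia reporters, seeded at 5×10^5 and stimulated with compounds. After […], supernatant SEAP read with QUANTI-Blue and Lucia luciferase with QUANTI-Luc.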

Assay [5] relates to NF-κB pathway. The assay can be described thus: Reporter gene expression assay in THP1-Dual cells, NFkB axis (secreted SEAP). The assay is classed as cell-based, human. As to conditions: read-out: THP-NFKB activity (EC50 range). Put shortly:
as §2

T2 sequence (Q86WV6 whole entry): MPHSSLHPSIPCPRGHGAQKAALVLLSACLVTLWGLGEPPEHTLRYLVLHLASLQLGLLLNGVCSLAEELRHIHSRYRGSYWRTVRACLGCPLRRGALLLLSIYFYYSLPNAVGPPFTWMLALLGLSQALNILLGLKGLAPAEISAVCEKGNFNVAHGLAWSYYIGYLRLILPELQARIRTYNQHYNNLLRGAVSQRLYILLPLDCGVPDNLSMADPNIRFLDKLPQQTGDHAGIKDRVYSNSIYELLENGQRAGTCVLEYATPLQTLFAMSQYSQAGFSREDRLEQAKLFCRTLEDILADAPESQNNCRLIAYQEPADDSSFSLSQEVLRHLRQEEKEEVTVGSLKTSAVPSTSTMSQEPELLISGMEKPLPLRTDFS
T1 sequence (Q86WV6 whole entry H232R): as the sequence (Q86WV6 whole entry) above, with H232R counted along it
T3 sequence (Q86WV6 whole entry R71H/G230A/H232R/R293Q): as the sequence (Q86WV6 whole entry) above, with R71H, G230A, H232R, R293Q counted along it

Consider `CC1Sc2ccc(C(=O)NCc3ccco3)nc2N(Cc2cc(F)cc(F)c2)C1=O` (centres unmarked) [Example 189, 4-(3,5-difluorobenzyl)-N-(furan-2-ylmethyl)-2-methyl-3-oxo-3,4-dihydro-2H-pyrido[3,2-b-1,4]thiazine-6-carboxamide], for which the pEC50 (usually the negative decadic logarithm of the EC50, by convention in mol/L) in assay [1] was > 6.00; in assay [2], 5.00 to 6.00; in assay [3] it was 5.00 to 6.00; in assay [4] (Homo sapiens, THP1-Dual), < 5.00; in assay [5] (Homo sapiens, THP1-Dual), < 5.00.
`Cc1ccc(CNC(=O)c2ccc3c(n2)N(Cc2cc(F)cc(F)c2)C(=O)C(C)S3)o1` (centres unmarked) [Example 190, 4-(3,5-difluorobenzyl)-2-methyl-N-((5-methylfuran-2-yl)methyl)-3-oxo-3,4-dihydro-2H-pyrido[3,2-b-1,4]thiazine-6-carboxamide]: the pEC50 in assay [1] was > 6.00; in assay [2], 5.00 to 6.00; in assay [3], 5.00 to 6.00; in assay [4], 5.00 to 6.00; in assay [5], 5.00 to 6.00.
With `CC1Sc2ccc(C(=O)NCc3ccccc3)nc2N(Cc2cc(F)cc(F)c2)C1=O` (centres unmarked) [Example 191, N-benzyl-4-(3,5-difluorobenzyl)-2-methyl-3-oxo-3,4-dihydro-2H-pyrido[3,2-b-1,4]thiazine-6-carboxamide], the pEC50 was > 6.00 in assay [1]; 5.00 to 6.00 in assay [2]; 5.00 to 6.00 in assay [3]; 5.00 to 6.00 in assay [4] (Homo sapiens, THP1-Dual); 5.00 to 6.00 in assay [5] (Homo sapiens, THP1-Dual).
`CC1Sc2ncc(C(=O)NCc3c(F)cc(F)cc3F)cc2N(Cc2cc(F)cc(F)c2)C1=O` (centres unmarked) [Example 192, 1-(3,5-difluorobenzyl)-3-methyl-2-oxo-N-(2,4,6-trifluorobenzyl)-2,3-dihydro-1H-pyrido[2,3-b][1,4]thiazine-7-carboxamide]: the pEC50 in assay [1] is > 6.00; in assay [2], > 6.00; in assay [3], > 6.00; in assay [4] (Homo sapiens, THP1-Dual) it was 5.00 to 6.00; in assay [5] (Homo sapiens, THP1-Dual) it was 5.00 to 6.00.
Turning to `CC1Sc2ncc(C(=O)NCc3cc4ccccc4o3)cc2N(Cc2cc(F)cc(F)c2)C1=O` (centres unmarked) [Example 193, N-(benzofuran-2-ylmethyl)-1-(3,5-difluorobenzyl)-3-methyl-2-oxo-2,3-dihydro-1H-pyrido[2,3-b][1,4]thiazine-7-carboxamide], the pEC50 was > 6.00 in assay [1]; 5.00 to 6.00 in assay [2]; 5.00 to 6.00 in assay [3]; < 5.00 in assay [4]; < 5.00 in assay [5].
`CC1Sc2ncc(C(=O)NCc3cc4ccccc4o3)cc2N(Cc2cc(F)cc(F)c2)C1=O` (centres unmarked) [Example 194, N-(benzofuran-2-ylmethyl)-1-(3,5-difluorobenzyl)-3-methyl-2-oxo-2,3-dihydro-1H-pyrido[2,3-b][1,4]thiazine-7-carboxamide]: the pEC50 was > 6.00 in assay [1]; > 6.00 in assay [2]; > 6.00 in assay [3]; 5.00 to 6.00 in assay [4]; 5.00 to 6.00 in assay [5].
Regarding `Cc1ccc(CNC(=O)c2cnc3c(c2)N(Cc2c(F)cccc2Cl)C(=O)C(C)S3)o1` (centres unmarked) [Example 195, 1-(2-chloro-6-fluorobenzyl)-3-methyl-N-((5-methylfuran-2-yl)methyl)-2-oxo-2,3-dihydro-1H-pyrido[2,3-b][1,4]thiazine-7-carboxamide], the pEC50 in assay [1] was > 6.00; in assay [2], 5.00 to 6.00; in assay [3], 5.00 to 6.00; in assay [4] (Homo sapiens, THP1-Dual) it was < 5.00; in assay [5] (Homo sapiens, THP1-Dual), 5.00 to 6.00.
`CC1Sc2ncc(C(=O)NCc3c(F)cc(F)cc3F)cc2N(Cc2c(F)cccc2Cl)C1=O` (centres unmarked) [Example 196, 1-(2-chloro-6 fluorobenzyl) 3-methyl-2-oxo-N-(2,4,6-trifluorobenzyl)-2,3-dihydro-1H-pyrido[2,3-b][1,4]thiazine-7-carboxamide]: the pEC50 in assay [1] was > 6.00; in assay [2] it was > 6.00; in assay [3], > 6.00; in assay [4] (Homo sapiens, THP1-Dual) it was 5.00 to 6.00; in assay [5] (Homo sapiens, THP1-Dual) it was 5.00 to 6.00.
On to `O=C(NCc1cc2ccccc2o1)c1cnc2c(c1)N(Cc1c(F)cccc1Cl)C(=O)CS2` [Example 197, N-(benzofuran-2-ylmethyl)-1-(2-chloro-6-fluorobenzyl)-2-oxo-2,3-dihydro-1H-pyrido[2,3-b][1,4]thiazine-7-carboxamide], for which the pEC50 is 5.00 to 6.00 in assay [1]; 5.00 to 6.00 in assay [2]; 5.00 to 6.00 in assay [3]; < 5.00 in assay [4] (Homo sapiens, THP1-Dual); < 5.00 in assay [5] (Homo sapiens, THP1-Dual).
Take `Cc1ccc(CNC(=O)c2ccc3c(n2)N(Cc2cc(F)cc(F)c2)C(=O)C(C)S3)o1` (centres unmarked) [Example 198, 4-(3,5-difluorobenzyl)-2-methyl-N-((5-methylfuran-2-yl)methyl)-3-oxo-3,4-dihydro-2H-pyrido[3,2-b][1,4]thiazine-6-carboxamide]: the negative logarithm of the EC50 (pEC50) in assay [1] is > 6.00; in assay [2], > 6.00; in assay [3], > 6.00; in assay [4] it was 5.00 to 6.00; in assay [5] it was 5.00 to 6.00.
For the compound `CC1Sc2ncc(C(=O)NCc3cc4ccccc4o3)cc2N(Cc2c(F)cccc2Cl)C1=O` (centres unmarked) [Example 199, N-(benzofuran-2-ylmethyl)-1-(2-chloro-6-fluorobenzyl)-3-methyl-2-oxo-2,3-dihydro-1H-pyrido[2,3-b][1,4]thiazine-7-carboxamide], the negative-log EC50 (pEC50) was > 6.00 in assay [1]; > 6.00 in assay [2]; > 6.00 in assay [3]; 5.00 to 6.00 in assay [4] (Homo sapiens, THP1-Dual); 5.00 to 6.00 in assay [5] (Homo sapiens, THP1-Dual).
In the case of `O=C(NCc1c(F)cc(F)cc1F)c1cnc2c(c1)N(Cc1cc(F)cc(F)c1)C(=O)CS2` [Example 200, 1-(3,5-difluorobenzyl)-2-oxo-N-(2,4,6-trifluorobenzyl)-2,3-dihydro-1H-pyrido[2,3-b] [1,4]thiazine-7-carboxamide], the negative logarithm of the EC50 (pEC50) was > 6.00 in assay [1]; 5.00 to 6.00 in assay [2]; 5.00 to 6.00 in assay [3]; < 5.00 in assay [4] (Homo sapiens, THP1-Dual); < 5.00 in assay [5] (Homo sapiens, THP1-Dual).
Turning to `CC1Sc2ncc(C(=O)NCc3ccccc3)cc2N(Cc2c(F)cccc2Cl)C1=O` (centres unmarked) [Example 201, N-benzyl-1-(2-chloro-6-fluorobenzyl)-3-methyl-2-oxo-2,3-dihydro-1H-pyrido[2,3-b][1,4]thiazine-7-carboxamide], the pEC50 in assay [1] was 5.00 to 6.00; in assay [2] it was 5.00 to 6.00; in assay [3], 5.00 to 6.00; in assay [4] (Homo sapiens, THP1-Dual) it was < 5.00; in assay [5] (Homo sapiens, THP1-Dual) it was < 5.00.
As for `Cc1ccc(CNC(=O)c2ccc3c(n2)N(Cc2c(F)cccc2Cl)C(=O)C(C)S3)o1` (centres unmarked) [Example 202, 4-(2-chloro-6-fluorobenzyl)-2-methyl-N-((5-methylfuran-2-yl)methyl)-3-oxo-3,4-dihydro-2H-pyrido[3,2-b] [1,4]thiazine-6-carboxamide], the pEC50 in assay [1] was 5.00 to 6.00; in assay [2], 5.00 to 6.00; in assay [3], 5.00 to 6.00; in assay [4] (Homo sapiens, THP1-Dual) it was < 5.00; in assay [5] (Homo sapiens, THP1-Dual), < 5.00.
As to `Cc1ccc(CNC(=O)c2ccc3c(n2)N(Cc2cc(F)cc(F)c2)C(=O)C(C)S3)o1` (centres unmarked) [Example 203, 4-(3,5-difluorobenzyl)-2-methyl-N-((5-methylfuran-2-yl)methyl)-3-oxo-3,4-dihydro-2H-pyrido[3,2-b][1,4]thiazine-6-carboxamide], the pEC50 was 5.00 to 6.00 in assay [1]; 5.00 to 6.00 in assay [2]; 5.00 to 6.00 in assay [3]; < 5.00 in assay [4]; < 5.00 in assay [5].
Turning to `CC1(C)Sc2ccc(C(=O)NCc3c(F)cc(F)cc3F)cc2N(Cc2ccccc2F)C1=O` [Example 218, 4-(2-fluorobenzyl)-2,2-dimethyl-3-oxo-N-(2,4,6-trifluorobenzyl)-3,4-dihydro-2H-benzo[b][1,4] thiazine-6-carboxamide], the pEC50 was > 6.00 in assay [1]; 5.00 to 6.00 in assay [2]; 5.00 to 6.00 in assay [3]; 5.00 to 6.00 in assay [4] (Homo sapiens, THP1-Dual); 5.00 to 6.00 in assay [5] (Homo sapiens, THP1-Dual).
Regarding `CC1Oc2ccc(C(=O)NCc3c(F)cc(F)cc3F)cc2N(Cc2cc(F)cc(F)c2)C1=O` (centres unmarked) [Example 232, 2-Methyl-4-(3,5-difluorobenzvyl)-3-oxo-N-(2,4,6-trifluorobenzyl)-3,4-dihydro-2H-1,4-benzoxazine-6-carboxamide], the negative logarithm of the EC50 (pEC50) in assay [1] is > 6.00; in assay [2], 5.00 to 6.00; in assay [3] it was 5.00 to 6.00; in assay [4] (Homo sapiens, THP1-Dual), < 5.00; in assay [5] (Homo sapiens, THP1-Dual) it was < 5.00.
For `C[C@H]1Oc2ccc(C(=O)NCc3c(F)cc(F)cc3F)cc2N(Cc2cc(F)cc(F)c2)C1=O` [Example 233, (R)-4-(3,5-difluorobenzyl)-2-methyl-3-oxo-N-(2,4.,6-trifluorobenzyl)-3,4-dihydro-2H-benzo[b-1,4]oxazine-6-carboxamide], the pEC50 is > 6.00 in assay [1]; 5.00 to 6.00 in assay [2]; 5.00 to 6.00 in assay [3]; < 5.00 in assay [4] (Homo sapiens, THP1-Dual); < 5.00 in assay [5] (Homo sapiens, THP1-Dual).
Regarding `C[C@@H]1Oc2ccc(C(=O)NCc3c(F)cc(F)cc3F)cc2N(Cc2cc(F)cc(F)c2)C1=O` [Example 234, (S)-4-(3,5-difluorobenzyl)-2-methyl-3-oxo-N-(2,4,6-trifluorobenzyl)-3,4-dihydro-2H-benzo[b-1,4]oxazine-6-carboxamide], the negative logarithm of the EC50 (pEC50) was > 6.00 in assay [1]; 5.00 to 6.00 in assay [2]; 5.00 to 6.00 in assay [3]; < 5.00 in assay [4] (Homo sapiens, THP1-Dual); < 5.00 in assay [5] (Homo sapiens, THP1-Dual).
